Laboratory results taken from patent US20230167073A1 (Teijin Pharma Limited, priority 2020, published 2023).

Target: T1, Human TRPC6 (Homo sapiens, UniProt Q9Y210)
T1 construct: expressed in transfected cells
T1 sequence (Q9Y210 1-931): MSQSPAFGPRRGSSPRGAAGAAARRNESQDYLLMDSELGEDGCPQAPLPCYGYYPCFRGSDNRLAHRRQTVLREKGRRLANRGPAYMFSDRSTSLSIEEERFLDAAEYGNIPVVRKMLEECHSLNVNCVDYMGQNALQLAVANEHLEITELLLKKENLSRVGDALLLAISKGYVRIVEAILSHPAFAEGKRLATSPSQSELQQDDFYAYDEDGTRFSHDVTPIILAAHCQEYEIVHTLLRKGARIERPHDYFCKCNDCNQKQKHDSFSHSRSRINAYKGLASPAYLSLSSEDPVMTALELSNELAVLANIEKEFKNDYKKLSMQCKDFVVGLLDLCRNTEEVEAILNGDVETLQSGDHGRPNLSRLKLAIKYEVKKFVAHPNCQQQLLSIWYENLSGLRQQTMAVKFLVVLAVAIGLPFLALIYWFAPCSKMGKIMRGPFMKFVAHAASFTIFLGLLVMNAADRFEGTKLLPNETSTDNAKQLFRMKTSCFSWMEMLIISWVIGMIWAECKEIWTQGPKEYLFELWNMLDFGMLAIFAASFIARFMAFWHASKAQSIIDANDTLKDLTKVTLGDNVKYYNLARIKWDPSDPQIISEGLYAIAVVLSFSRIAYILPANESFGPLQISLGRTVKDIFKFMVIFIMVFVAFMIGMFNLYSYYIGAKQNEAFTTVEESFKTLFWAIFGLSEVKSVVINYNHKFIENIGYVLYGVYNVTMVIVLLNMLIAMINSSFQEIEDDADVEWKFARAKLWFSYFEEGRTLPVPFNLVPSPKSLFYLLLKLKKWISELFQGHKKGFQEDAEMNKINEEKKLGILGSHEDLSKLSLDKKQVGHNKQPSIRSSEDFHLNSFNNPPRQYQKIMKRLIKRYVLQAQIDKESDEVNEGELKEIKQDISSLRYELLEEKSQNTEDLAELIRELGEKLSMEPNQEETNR
Assay: Evaluation of TRPC6 channel inhibitory activity (1), FLIPR Calcium 5 Assay Kit, OAG stimulation (Compound Nos. 1-1293)
Format: cell-based
Settings: Human TRPC6 stably-expressing cells, OAG 30 μM, FLIPR Calcium 5 Assay Kit; read-out: Inhibitory activity (pIC50 class) (converted)
Summary of the method: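 Stable human TRPC6 line; fluorescent Ca2+ dye loading, then 20 min compound exposure before 30 μM OAG trigger. Peak-minus-baseline signal converted to % inhibition against untreated and unstimulated wells; potency given as pIC50 band.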

Row | SMILES | IC50
1 | Cc1cc(Oc2cc(C#N)ccc2-c2ccc(CCN)cn2)cc(N2CCCC2)n1 [Compound 254, 4-[5-(2-aminoethyl)pyridin-2-yl]-3-(2-methyl-6-pyrrolidin-1-ylpyridin-4-yl)oxybenzonitrile] | < 10 nM
2 | Cc1nc(Oc2cc(C#N)ccc2-c2ccc(CCN)cc2)cc(-c2ccccc2O)n1 [Compound 22, 4-[4-(2-aminoethyl)phenyl]-3-[6-(2-hydroxyphenyl)-2-methylpyrimidin-4-yl]oxybenzonitrile] | 10 to 1000 nM
3 | Cc1cccc(-c2cc(Oc3cc(C#N)ccc3-n3cc([C@H](O)CN)cn3)nc(C)n2)c1 [Compound 206, 4-[4-[(1S)-2-amino-1-hydroxyethyl]pyrazol-1-yl]-3-[2-methyl-6-(3-methylphenyl)pyrimidin-4-yl]oxybenzonitrile] | < 10 nM
4 | Cc1nc(Oc2cc(C#N)ccc2-c2ccc(N3CCNCC3)cc2)cc(N2CCOCC2)n1 [Compound 12, 3-(2-methyl-6-morpholin-4-ylpyrimidin-4-yl)oxy-4-(4-piperazin-1-ylphenyl)benzonitrile] | > 1000 nM
5 | Cc1cc(Oc2cc(C#N)ccc2-c2ncc(CN)cn2)no1 [compound 676, 4-[5-(aminomethyl)pyrimidin-2-yl]-3-[(5-methyl-1,2-oxazol-3-yl)oxy]benzonitrile] | > 1000 nM
6 | Cc1nc(Oc2cc(C#N)ccc2-c2ccc3c(c2)CC(N)C3O)cc(N2CCOCC2)n1 (stereo not shown) [Compound 134, 4-(2-amino-1-hydroxy-2,3-dihydro-1H-inden-5-yl)-3-(2-methyl-6-morpholin-4-ylpyrimidin-4-yl)oxybenzonitrile] | 10 to 1000 nM
7 | Cc1c(CN2CCN[C@@H](C)C2)cc(-c2ccc(C#N)cc2Oc2cc(C3CC3)nn2C)c2nccn12 [compound 497, 3-(5-cyclopropyl-2-methylpyrazol-3-yl)oxy-4-[5-methyl-6-[[(3S)-3-methylpiperazin-1-yl]methyl]imidazo[1,2-a]pyridin-8-yl]benzonitrile] | > 1000 nM
8 | Cc1cc(Oc2cc(C#N)ccc2-c2ncc(CCN)cn2)n(C)n1 [compound 305, 4-[5-(2-aminoethyl)pyrimidin-2-yl]-3-(2,5-dimethylpyrazol-3-yl)oxybenzonitrile] | 10 to 1000 nM
9 | COC(c1cc(-c2nccs2)no1)c1cc(C#N)ccc1-c1ccc(CCN)cc1 (stereo not shown) [Compound No. 1232, 4-[4-(2-Aminoethyl)phenyl]-3-[methoxy-[3-(1,3-thiazol-2-yl)-1,2-oxazol-5-yl]methyl]benzonitrile] | > 1000 nM
10 | Cn1nc(-c2ccccc2)cc1Oc1cc(C#N)ccc1-c1ccc(CN)cn1 [Compound 289, 4-[5-(aminomethyl)pyridin-2-yl]-3-(2-methyl-5-phenylpyrazol-3-yl)oxybenzonitrile] | < 10 nM
11 | CCCCc1cc(Oc2cc(C#N)ccc2-c2ncc(CCN)cn2)n(C)n1 [compound 319, 4-[5-(2-aminoethyl)pyrimidin-2-yl]-3-(5-butyl-2-methylpyrazol-3-yl)oxybenzonitrile] | < 10 nM
12 | CN(C)c1cc(Oc2cc(C#N)ccc2-c2ncc(CCN)cn2)n(C)n1 [compound 629, 4-[5-(2-aminoethyl)pyrimidin-2-yl]-3-[5-(dimethylamino)-2-methylpyrazol-3-yl]oxybenzonitrile] | < 10 nM
13 | Cn1nc(-c2cccnc2)cc1Oc1cc(C#N)ccc1-c1ccc(CCN)cn1 [Compound 179, 4-[5-(2-aminoethyl)pyridin-2-yl]-3-(2-methyl-5-pyridin-3-ylpyrazol-3-yl)oxybenzonitrile] | < 10 nM
14 | Cc1cc(Oc2cc(C#N)ccc2-c2ncc(CN)cn2)cc(NC2CC2)n1 [compound 646, 4-[5-(aminomethyl)pyrimidin-2-yl]-3-[2-(cyclopropylamino)-6-methylpyridin-4-yl]oxybenzonitrile] | 10 to 1000 nM
15 | CCCCc1cc(Oc2cc(C#N)ccc2-c2ccc(C(O)CN)cn2)n(C)n1 (stereo not shown) [compound 318, 4-[5-(2-amino-1-hydroxyethyl)pyridin-2-yl]-3-(5-butyl-2-methylpyrazol-3-yl)oxybenzonitrile] | < 10 nM
16 | Cc1nc(Oc2cc(C#N)ccc2-c2ccc([C@H](O)CN)cn2)cc(N2CCCCC2)n1 [compound 509, 4-[5-[(1S)-2-amino-1-hydroxyethyl]pyridin-2-yl]-3-(2-methyl-6-piperidin-1-ylpyrimidin-4-yl)oxybenzonitrile] | < 10 nM
17 | CC(C)Nc1cc(Oc2cc(C#N)ccc2-c2ccc([C@H](O)CN)cn2)n(C)n1 [compound 549, 4-[5-[(1S)-2-amino-1-hydroxyethyl]pyridin-2-yl]-3-[2-methyl-5-(propan-2-ylamino)pyrazol-3-yl]oxybenzonitrile] | 10 to 1000 nM

Now from value to molecule:

Row | IC50 | SMILES
18 | 10 to 1000 nM | N#Cc1ccc(-c2ncc(CCN)cn2)c(Oc2cncc(N3CCOCC3)c2)c1 [compound 917, 4-[5-(2-aminoethyl)pyrimidin-2-yl]-3-(5-morpholin-4-ylpyridin-3-yl)oxybenzonitrile]
19 | 10 to 1000 nM | COCCN(C)c1cc(Oc2cc(C#N)ccc2-c2ncc(CN)cn2)n(C)n1 [compound 798, 4-[5-(aminomethyl)pyrimidin-2-yl]-3-[5-[2-methoxyethyl(methyl)amino]-2-methylpyrazol-3-yl]oxybenzonitrile]
20 | 10 to 1000 nM | NCCc1cnc(-c2ccc(F)cc2C(=O)c2cnn(CC3CC3)c2)nc1 [compound 1101, [2-[5-(2-aminoethyl)pyrimidin-2-yl]-5-fluorophenyl]-[1-(cyclopropylmethyl)pyrazol-4-yl]methanone]
21 | < 10 nM | Cn1nc(N2CCCC2)cc1Oc1cc(F)ccc1-c1ccc(CCN)cn1 [compound 980, 2-[6-[4-fluoro-2-(2-methyl-5-pyrrolidin-1-ylpyrazol-3-yl)oxyphenyl]pyridin-3-yl]ethanamine]
22 | > 1000 nM | Cc1nc(Oc2cc(C#N)ccc2-c2ncc(CCN)cn2)cc(N(C)C2COC2)n1 [compound 879, 4-[5-(2-aminoethyl)pyrimidm-2-yl]-3-[2-methyl-6-[methyl(oxetan-3-yl)amino]pyrimidin-4-yl]oxybenzonitrile]
23 | < 10 nM | CCN(CC(F)F)c1cc(Oc2cc(F)ccc2-c2ncc(CCN)cn2)n(C)n1 [compound 989, 5-[2-[5-(2-aminoethyl)pyrimidin-2-yl]-5-fluorophenoxy]-N-(2,2-difluoroethyl)-N-ethyl-1-methylpyrazole-3-amine]
24 | < 10 nM | N#Cc1ccc(-c2ccc(CN)cn2)c(C(=O)c2sc(N3CCOCC3)nc2C(F)(F)F)c1 [compound 1080, 4-[5-(aminomethyl)pyridin-2-yl]-3-[2-morpholin-4-yl-4-(trifluoromethyl)-1,3-thiazole-5-carbonyl]benzonitrile]
25 | < 10 nM | Cc1nc(N2CCOCC2)sc1C(=O)c1cc(C#N)ccc1-c1ccc(CN)cn1 [compound 1066, 4-[5-(aminomethyl)pyridin-2-yl]-3-(4-methyl-2-morpholin-4-yl-1,3-thiazole-5-carbonyl)benzonitrile]
26 | > 1000 nM | Cc1nc(-c2ccc(C(F)(F)F)cc2)cn1Cc1cc(C#N)ccc1-c1ccc(CCN)cc1 [compound 1125, 4-[4-(2-aminoethyl)phenyl]-3-[[2-methyl-4-[4-(trifluoromethyl)phenyl]imidazol-1-yl]methyl]benzonitrile]
27 | < 10 nM | Cc1nn(-c2ccccn2)cc1Oc1cc(C#N)ccc1-c1ncc(CN)cn1 [compound 833, 4-[5-(aminomethyl)pyrimidin-2-yl]-3-(3-methyl-1-pyridin-2-ylpyrazol-4 yl)oxybenzonitrile]
28 | < 10 nM | N#Cc1ccc(-c2ncc(CCN)cn2)c(Cn2cnc(-c3ccccc3)c2)c1 [compound 1135, 4-[5-(2-aminoethyl)pyrimidin-2-yl]-3-[(4-phenylimidazol-1-yl)methyl]benzonitrile]
29 | > 1000 nM | Cn1nc(C2CC2)cc1Oc1cc(C#N)ccc1-c1cc(C(=O)N2CCC[C@H](N)C2)cn2ccnc12 [compound 756, 4-[6-[(3S)-3-aminopiperidine-1-carbonyl]imidazo[1,2-a]pyridin-8-yl]-3-(5-cyclopropyl-2-methylpyrazol-3-yl)oxybenzonitrile]
30 | 10 to 1000 nM | Cc1nc(Sc2cc(C#N)ccc2-c2ccc(CCN)cn2)cc(N2CCOCC2)n1 [compound 1248, 4-[5-(2-aminoethyl)pyridin-2-yl]-3-(2-methyl-6-morpholin-4-ylpyrimidin-4-yl)sulfanylbenzonitrile]
31 | 10 to 1000 nM | Cc1nc(Oc2cc(C#N)ccc2-c2ncc(CCN)cn2)cc(N2CCC2=O)n1 [compound 855, 4-[5-(2-aminoethyl)pyrimidin-2-yl]-3-[2-methyl-6-(2-oxoazetidin-1-yl)pyrimidin-4-yl]oxybenzonitrile]
